This note sets out measurements from patent US9006205B2, “Antisense oligonucleotides against neutral sphingomyelinase and neutral sphingomyelinase inhibitor GW4869 for degenerative neurological disorders” (Rush University Medical Center, priority 2011, dated 2015).

The test system of one data set is A-SMase. Kind of data set: A-SMase activity in vivo in the cortex after microinjection. The following applies: pre-microinjection of 1 μg oligonucleotide 24 h before 1 μg fibrillar Aβ1-42. More on the design: species or system C57/BL6 mice. As to the method:
(§1) Activities of SMase(s) were assayed as described by. Briefly, after treatment, the cells were washed with PBS, harvested in PBS, divided into two halves, and centrifuged. The fraction for N-SMase was resuspended in buffer A (100 mM Tris-HCl, pH 7.4, 0.1% Triton X-100, 1 mM EDTA, and protease inhibitors), and the cell suspension was sonicated and centrifuged at 500×g at 4° C. for 5 min. The supernatant was used as the enzyme source for N-SMase. The reaction mixture contained enzyme preparation in buffer A containing 5 nmol of [^14C] sphingomyelin, 5 nmol of phosphatidylserine, 5 mM dithiothreitol, and 5 mM MgC¾ in a final volume of 100 μl. Similarly, the fraction for A-SMase was resuspended in buffer B (100 mM sodium acetate, pH 5.0, 0.1% Triton X-100, and protease inhibitors). The cell suspension was sonicated and centrifuged. The supernatant was used as the source of A-SMase. The activity of A-SMase was measured in a 100-μl reaction mixture consisting of the enzyme preparation in buffer B and 5 nmol of [^14C] sphingomyelin. The enzyme reaction was initiated by the addition of 50 μl of substrate and stopped by the addition of 1.5 ml of chloroform:methanol (2:1, v/v) and 0.2 ml of water. After vortexing and phase separation, the aqueous phase was removed for counting.
(§2) Control mice received saline injection. At indicated time points, cortex was dissected out and divided into two halves—one half for measuring activities of N-SMase (FIG. 7B) and A-SMase (FIG. 7C) and the other for assaying ceramide (FIG. 7D). Control (saline—6 h) group served as 100%, and data from other groups were expressed as percentage of control. Results are mean+SD of five different mice (n=5). ^ap<0.05 vs saline—6 h.

Another data set relates to iNOS, GFAP and CD11b. The experiment in a line: Immunofluorescence of iNOS, GFAP and CD11b in the cortex of Aβ-microinjected mice. The data set is classed as in vivo, C57/BL6 mice. The following applies: 1 μg oligonucleotide 24 h before Aβ; at both 6 h and 24 h of microinjection. As to the method: […], mice were perfused with 4% paraformaldehyde and their brains were processed for immunohistochemical studies. For double labeling of GFAP with iNOS, sections (6 μm) were incubated with polyclonal anti-GFAP (GFAP: 1000 dilution; Calbiochem) and anti-iNOS (iNOS: 1000 dilution; Calbiochem) for 24 h at 4° C. After three washes in PBST (15 min each), slides were further incubated with Cy5 and Cy2 (Jackson ImmunoResearch Laboratories, Inc.) secondary antibodies for 2 h at room temperature. For negative controls, a set of tissue sections was incubated under similar conditions without the primary antibodies. The samples were mounted and observed under a Bio-Rad MRC1024ES confocal laser scanning microscope.
After 6 h of Aβ microinjection, mice were perfused and double immunofluorescence for GFAP (green) and iNOS (red) (FIG. 8A) and CD 11b (green) and iNOS (red) (FIG. 8B) was performed.

Data set [1] has as its system neurons (NeuN-positive cells). The experiment in a line: TUNEL/NeuN neuronal apoptosis in vivo in the cortex of Aβ-microinjected mice. Particulars: 1 μg oligonucleotide 24 h before Aβ; 24 h after final microinjection.
Data set [2] deals with T1, N-SMase (Homo sapiens, UniProt Q9NY59).
T1 construct: endogenous in cells; host or cells: primary human neurons
T1 sequence (Q9NY59 1-655): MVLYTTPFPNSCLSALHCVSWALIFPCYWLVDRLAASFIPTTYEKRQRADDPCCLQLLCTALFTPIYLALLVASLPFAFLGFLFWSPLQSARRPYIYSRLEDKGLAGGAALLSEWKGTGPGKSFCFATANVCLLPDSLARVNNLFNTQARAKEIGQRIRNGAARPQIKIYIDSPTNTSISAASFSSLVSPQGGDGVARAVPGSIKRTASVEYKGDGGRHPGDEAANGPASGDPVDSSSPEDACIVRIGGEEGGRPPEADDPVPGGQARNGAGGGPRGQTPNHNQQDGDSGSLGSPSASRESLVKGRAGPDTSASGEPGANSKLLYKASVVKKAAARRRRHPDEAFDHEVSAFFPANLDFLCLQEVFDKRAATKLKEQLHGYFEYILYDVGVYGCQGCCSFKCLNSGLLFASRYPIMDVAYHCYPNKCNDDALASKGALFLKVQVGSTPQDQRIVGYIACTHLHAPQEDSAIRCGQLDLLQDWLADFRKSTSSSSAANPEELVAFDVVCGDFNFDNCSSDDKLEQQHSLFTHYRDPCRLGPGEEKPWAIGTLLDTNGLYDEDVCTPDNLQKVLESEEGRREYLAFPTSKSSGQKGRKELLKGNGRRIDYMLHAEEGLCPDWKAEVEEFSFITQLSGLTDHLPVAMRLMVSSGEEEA
The experiment in a line: Assay of N-SMase activity in primary human neurons. The data set is classed as cell-based. As to the method:
as §1
In FIGS. 3A-3E, primary human astrocytes seeded in inserts were stimulated by the combination of Aβ and IL-Iβ as described above. After 24 h, media were removed and inserts were washed and placed on neurons that were pretreated with PTIO for 30 min. In FIG. 3A, after 1 h, activity of N-SMase was measured in total cell extracts of neurons as described above. After 18 h, neuronal viability was examined by the metabolism of MTT (FIG. 3B) and the release of LDH (FIG. 3C). Values obtained from the control group served as 100%, and data obtained in other groups were calculated as percent of control accordingly. Results are mean+S.D. of three different experiments. ^ap<0.001 vs control; ^bp<0.001 vs activated astrocytes. Primary human neurons were treated with 25 μM DETA-NONOate (a NO donor) and at different time points of treatment, activities of N-SMase (FIG. 3D) and A-SMase (FIG. 3E) were monitored. ^ap<0.001 vs control (0 h).

Data set [3] deals with primary human neurons. The experiment in a line: MTT metabolism of neurons in astrocyte-neuron trans-well. The data set is classed as cell-based. The procedure: (§3) Primary human astrocytes were grown to confluency on inserts. After 24 h of stimulation by the combination of Aβ (1 μM) and IL-Iβ (10 ng/ml), inserts were washed thrice with HBSS and then placed onto the wells containing primary human neurons. Therefore, in this trans-well model, although neurons and astrocytes face each other, they are separable and the effect of soluble factors released from activated astrocytes on neurons can be studied allowing analysis of neuronal and glial populations separately.
Mitochondrial activity was measured with the 3-(4,5-dimethylthiazol-2-yl)-2,5-diphenyltetrazolium bromide (MTT) assay (Sigma). The cells were grown on 24-well culture plates with 500 μl of medium and treated with various reagents according to the experimental design. At the end of the treatment period, 300 μl of culture medium were removed from each well, and 20 μl of MTT solution (5 mg/ml) were added and incubated for 1 h.
(§4) Primary human neurons were incubated with antisense (ASO) and scrambled oligonucleotides (ScO) against N-SMase (A) and A-SMase (FIG. 2B). After 48 h, neurons were analyzed for protein expression of N-SMase and A-SMase. In FIG. 2C, primary human astrocytes seeded in inserts were stimulated by the combination of Aβ and IL-1β as described above. […] After 6 h of treatment with activated astrocytes, apoptotic events in neurons were detected by TUNEL. In FIG. 2D, TUNEL-positive cells were counted manually in four different images of each of three coverslips by three individuals blinded to the experiment. […] Values obtained from the control group served as 100%, and data obtained in other groups were calculated as percent of control accordingly. […]
In FIGS. 3A-3E, primary human astrocytes seeded in inserts were stimulated by the combination of Aβ and IL-Iβ as described above. […] In FIG. 3A, after 1 h, activity of N-SMase was measured in total cell extracts of neurons as described above. […] Values obtained from the control group served as 100%, and data obtained in other groups were calculated as percent of control accordingly.

Data set [4] concerns primary human neurons. Kind of data set: LDH release from neurons in astrocyte-neuron trans-well. The data set is classed as cell-based. As to the method:
as §3
The activity of lactate dehydrogenase (LDH) was measured using the direct spectrophotometric assay using an assay kit from Sigma.
as §4, with “experiment. In FIG. 2E, after 18 h of stimulation, cell viability was examined by the metabolism of MTT and the release of LDH.” for “experiment.”
In FIGS. 3A-3E, primary human astrocytes seeded in inserts were stimulated by the combination of Aβ and IL-Iβ as described above. […] In FIG. 3A, after 1 h, activity of N-SMase was measured in total cell extracts of neurons as described above. […] Values obtained from the control group served as 100%, and data obtained in other groups were calculated as percent of control accordingly. […] Primary human neurons were treated with 25 μM DETA-NONOate (a NO donor) and at different time points of treatment, activities of N-SMase (FIG. 3D) and A-SMase (FIG. 3E) were monitored. ^ap<0.001 vs control (0 h).
(In general: Release of lactate dehydrogenase indicates damage to the cell membrane.)

The subject of data set [5] is N-SMase. The experiment in a line: N-SMase activity in vivo in the cortex after microinjection. Particulars: pre-microinjection of 1 μg oligonucleotide 24 h before 1 μg fibrillar Aβ1-42. More on the design: species or system C57/BL6 mice. As to the method:
as §1, §2

A further data set relates to primary human astrocytes. Kind of data set: GFAP and iNOS double-labeling of primary human astrocytes stimulated with Aβ peptides. The data set is classed as cell-based. Particulars: peptide stimulation for 24 h. As to the method: In FIG. 5A, primary astrocytes were stimulated with fibrillar Aβ1-42, oligomeric Aβ1-42 and reverse peptide Aβ42-1 for 24 h followed by double-labeling of GFAP and iNOS. In FIG. 5B, primary human astrocytes seeded in inserts were stimulated with a combination of I μM of oligomeric Aβ1-42 and 10 ng/ml of IL-Iβ in serum free media. […] After 6 h, neuronal apoptosis was monitored by TUNEL. In FIG. 5C, TUNEL-positive cells were counted manually in four different images of each of three coverslips by three individuals blinded to the experiment. Values obtained from the control group (1) served as 100%, and data obtained from other three groups i.e. the oligomeric Aβ-activated astrocytes (OAA) group (2), the ASO-OAA group (3), and the ScO-OAA group (4) was calculated as percent of control accordingly. Results are mean+S.D. of three different experiments. ^ap<0.001 vs control; ^bp<0.001 vs OAA.

[6] abbreviates: neurons pretreated with oligonucleotide, 18 h of stimulation.
[7] abbreviates: neurons pretreated with PTIO for 30 min, after 18 h.

For the compound “5′-CACGCGTCCGACGCCGCACGA-3′ (DNA CACGCGTCCGACGCCGCACGA; chemistry not given here) [mN-SMase ScO]”, the “activity of A-SMase in fibrillar Aβ-microinjected cortex” value in the data set on A-SMase is recorded as “did not influence”. For the same compound, the “expression of iNOS, GFAP and CD11b in vivo in the cortex of Aβ-microinjected mice” value with iNOS, GFAP and CD11b is given as “had no effect”. Further, in data set [1], the “Aβ-induced apoptotic death in vivo in the cortex (TUNEL/NeuN)” value is “did not ameliorate”.
With `NCCN(CCN)/[N+]([O-])=N/O` [DETA-NONOate], the “activation of N-SMase by NO donor alone” value on N-SMase [2] (primary human neurons, 25 μM, different time points) was “markedly induced”.
As for “5′- CACGCGTCCGACGCCGCACGA -3′ (DNA, all phosphorothioate, methylation of C not given here) [ScO against N-SMase, ID; NO.: 13]”, the “activated astroglia-mediated loss of MTT metabolism” value in the data set with primary human neurons [3] (setting [6]) is listed as “showed no effect”. Moreover, the “LDH release from neurons” value with primary human neurons [4] (setting [6]) is reported as “showed no effect”.
As for “5′-CAGCGAGCCGGTCCACCAGCC-3′ (antisense CAGCGAGCCGGTCCACCAGCC; chemistry not given here) [mN-SMase ASO]”, the “Aβ1-42-induced activation of N-SMase in vivo in the cortex” value with N-SMase [5] was “capable of suppressing”. Moreover, in the data set on A-SMase, the “activity of A-SMase in fibrillar Aβ-microinjected cortex” value was “did not influence”. The “expression of iNOS, GFAP and CD11b in vivo in the cortex of Aβ-microinjected mice” value in the data set with iNOS, GFAP and CD11b was “dramatically reduced”. For the same compound, in data set [1], the “Aβ-induced apoptotic death in vivo in the cortex (TUNEL/NeuN)” value is “blocked”.
In the case of “oligomeric Aβ: Aβ1-42 prepared after incubation at 37° C. for 2 days”, the “astroglial iNOS protein and GFAP” value in the data set on primary human astrocytes is “also induced iNOS and upregulated GFAP”.
With `CC1(C)N([O])C(c2ccccc2)=[N+]([O-])C1(C)C` [PTIO], the “ability of activated astrocytes to decrease MTT metabolism” value in the data set on primary human neurons [3] (setting [7]) is recorded as “reduced the ability”. In addition, the “ability of activated astrocytes to increase the release of LDH” value with primary human neurons [4] (setting [7]) was “reduced the ability”. Also, on N-SMase [2] (neurons pretreated with PTIO for 30 min, measured after 1 h), the “ability of activated astrocytes to induce the activation of N-SMase” value was “reduced the ability”.
